Several values for one entry are separate records, joined by “and”; a condition that tells them apart may be missing. Equal values may be shown once. *1 amine or outer side, *2 acyl side, *3 side chain or, on linkers, in order; H or OH if unused. Where a SMILES comes first, the peptide text is derived from it. Bridges are numbered along the chain shown (N, C = ends). [ ]: non-standard residue; d: D form. Suberoyl(Gly)2 = O=C(CCCCCCC(=O)NCC(=O)[*:2])NCC(=O)[*:1]; X1 = O=C(O)CCNC(=S)NCCCC[C@H](N[*:1])C(=O)[*:2]; Suberoyl = O=C(CCCCCCC(=O)[*:2])[*:1]
Key:
[1] = molecular target: T1, human recombinant GST-SIRT5 (Homo sapiens, UniProt Q9NXA8); experiment: HPLC-based in vitro sirtuin inhibition assay, SIRT5-catalyzed deacylation (desuccinylation); assay type: biochemical; settings: GST-SIRT5 370 nM, 0.8 mM β-NAD+, 0.88 mM succinyl-lysine H3 peptide substrate, 37 °C, 5 min; estimated from Dixon plots
T1 construct: purchased Cayman Chemical (Ann Arbor, Michigan, USA)
T1 sequence (Q9NXA8 37-310): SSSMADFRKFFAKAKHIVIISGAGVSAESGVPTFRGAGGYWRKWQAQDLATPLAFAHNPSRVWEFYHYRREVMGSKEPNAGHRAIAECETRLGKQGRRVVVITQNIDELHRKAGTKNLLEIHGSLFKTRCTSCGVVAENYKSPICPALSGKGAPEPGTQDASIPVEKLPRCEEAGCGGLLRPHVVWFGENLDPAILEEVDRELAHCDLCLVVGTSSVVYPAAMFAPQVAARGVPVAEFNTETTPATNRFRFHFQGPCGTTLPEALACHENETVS
Text: (§1) The following materials were purchased from commercial vendors for the sirtuin inhibition assay and the pronase digestion assay, and were used as received without further treatment. Sigma-Aldrich China: the active human recombinant His6-SIRT1, Trizma, Hepes, β-NAD^+, a 1.0 M solution of MgCl2 (molecular-biology grade), the pronase from Streptomyces griseus; Cayman Chemical (Ann Arbor, Michigan, USA): the active human recombinant GST-SIRT1, the active human recombinant His6-SIRT2, the active human recombinant His6-SIRT3, the active human recombinant GST-SIRT5, the active human recombinant His6-SIRT6; TCI Shanghai: D,L-dithiothreitol (DTT); Alfa Aesar China: NaCl, KCl.
(§2) The peptide substrates prepared and used in the sirtuin inhibition assay were: the SIRT1/2/3 substrate H2N-HK-[N^ε-acetyl-lysine]-LM-COOH corresponding to amino acids 380–384 of the human p53 protein acetylated at K^382; the SIRT5 substrate CH3CONH-AR-[N^ε-succinyl-lysine]-ST-CONH2 corresponding to amino acids 7–11 of the human histone H3 protein succinylated at K^9; the SIRT6 substrate H2N-EALPK-[N^ε-myristoyl-lysine]-TGGPQ-CONH2 corresponding to amino acids 15–25 of the human tumor necrosis factor α (TNFα) myristoylated at K^20.
(§3) The HPLC-based sirtuin inhibition assay that our laboratory has been using over past several years was employed in the current study and was performed as described previously. […]

[2] = molecular target: T2, human recombinant His6-SIRT2 (Homo sapiens, UniProt Q8IXJ6); experiment: HPLC-based in vitro sirtuin inhibition assay, SIRT2-catalyzed deacetylation; assay type: biochemical; settings: His6-SIRT2 309 nM, 0.5 mM β-NAD+, 0.39 mM acetyl-lysine p53 peptide substrate, 37 °C, 12 min; Dixon plots
T2 construct: purchased Cayman Chemical (Ann Arbor, Michigan, USA)
T2 sequence (Q8IXJ6 1-389): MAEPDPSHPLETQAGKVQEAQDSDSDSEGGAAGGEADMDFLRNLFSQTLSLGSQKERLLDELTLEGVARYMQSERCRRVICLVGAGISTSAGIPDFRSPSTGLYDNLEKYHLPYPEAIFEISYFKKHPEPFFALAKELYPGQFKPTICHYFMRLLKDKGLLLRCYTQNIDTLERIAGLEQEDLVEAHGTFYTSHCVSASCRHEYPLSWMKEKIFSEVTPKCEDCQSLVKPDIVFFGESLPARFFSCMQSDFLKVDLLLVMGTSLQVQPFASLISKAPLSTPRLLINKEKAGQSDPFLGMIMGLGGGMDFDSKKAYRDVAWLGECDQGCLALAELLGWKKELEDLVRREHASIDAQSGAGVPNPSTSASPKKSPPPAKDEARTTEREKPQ
Text: as §1, §2, §3

[3] = molecular target: T3, human recombinant His6-SIRT1 or GST-SIRT1 (Homo sapiens, UniProt Q96EB6); experiment: HPLC-based in vitro sirtuin inhibition assay, SIRT1; assay type: biochemical; settings: SIRT1 320 nM, 0.5 mM β-NAD+, 0.3 mM acetyl-lysine p53 peptide substrate, 37 °C, 10 min; Dixon plots
T3 construct: His6 or GST (one of the two); purchased Sigma-Aldrich China (His6-SIRT1) or Cayman Chemical (GST-SIRT1)
T3 sequence (Q96EB6 1-747): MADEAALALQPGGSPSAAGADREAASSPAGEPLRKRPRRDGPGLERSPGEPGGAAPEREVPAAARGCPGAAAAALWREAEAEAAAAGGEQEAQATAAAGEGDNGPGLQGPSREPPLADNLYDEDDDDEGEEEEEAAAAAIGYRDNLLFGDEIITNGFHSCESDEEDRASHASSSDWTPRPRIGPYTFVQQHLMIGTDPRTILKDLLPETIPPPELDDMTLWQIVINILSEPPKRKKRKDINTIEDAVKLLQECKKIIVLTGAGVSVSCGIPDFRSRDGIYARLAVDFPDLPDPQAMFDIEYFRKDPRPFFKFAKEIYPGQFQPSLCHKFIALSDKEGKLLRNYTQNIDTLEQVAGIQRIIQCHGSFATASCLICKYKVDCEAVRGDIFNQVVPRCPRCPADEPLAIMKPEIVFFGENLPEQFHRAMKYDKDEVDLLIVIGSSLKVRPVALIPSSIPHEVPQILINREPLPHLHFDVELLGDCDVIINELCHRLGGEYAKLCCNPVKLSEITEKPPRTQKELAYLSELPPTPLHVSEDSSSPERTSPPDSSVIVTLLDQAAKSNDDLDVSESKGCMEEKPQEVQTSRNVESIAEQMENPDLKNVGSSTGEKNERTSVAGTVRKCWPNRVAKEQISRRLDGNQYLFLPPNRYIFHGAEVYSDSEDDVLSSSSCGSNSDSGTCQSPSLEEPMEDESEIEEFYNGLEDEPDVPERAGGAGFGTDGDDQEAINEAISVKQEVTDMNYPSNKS
Text: as §1, §2, §3

[4] = molecular target: T4, human recombinant His6-SIRT3 (Homo sapiens, UniProt Q9NTG7); experiment: HPLC-based in vitro sirtuin inhibition assay, SIRT3; assay type: biochemical; settings: His6-SIRT3 320 nM, 3.5 mM β-NAD+, 0.105 mM acetyl-lysine p53 peptide substrate, 37 °C, 10 min; Dixon plots
T4 construct: purchased Cayman Chemical (Ann Arbor, Michigan, USA)
T4 sequence (Q9NTG7 1-399): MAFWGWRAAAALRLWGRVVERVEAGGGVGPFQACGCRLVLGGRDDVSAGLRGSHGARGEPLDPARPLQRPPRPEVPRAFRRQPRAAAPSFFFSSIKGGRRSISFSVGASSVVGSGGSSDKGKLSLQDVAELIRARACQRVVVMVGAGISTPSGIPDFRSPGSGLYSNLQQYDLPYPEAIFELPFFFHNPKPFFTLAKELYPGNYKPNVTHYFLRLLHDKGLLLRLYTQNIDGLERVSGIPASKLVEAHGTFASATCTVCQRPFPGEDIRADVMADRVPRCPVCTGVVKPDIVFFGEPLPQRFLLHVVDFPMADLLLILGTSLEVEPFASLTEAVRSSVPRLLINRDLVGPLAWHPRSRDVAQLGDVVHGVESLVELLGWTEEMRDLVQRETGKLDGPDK
Text: as §1, §2, §3

[5] = molecular target: T5, human recombinant His6-SIRT6 (Homo sapiens, UniProt Q8N6T7); experiment: HPLC-based in vitro sirtuin inhibition assay, SIRT6 (demyristoylation); assay type: biochemical; settings: His6-SIRT6 313 nM, 0.2 mM β-NAD+, 0.02 mM myristoyl-lysine TNFα peptide substrate, 37 °C, 12 min; Dixon plots
T5 construct: purchased Cayman Chemical (Ann Arbor, Michigan, USA)
Text: as §1, §2, §3

SIRT5 = SIRT5 desuccinylation assay; cited from earlier work
SIRT1 = settings: cited from earlier work
SIRT2 = settings: cited from earlier work
SIRT3 = settings: cited from earlier work

T5 sequence (Q8N6T7 whole entry): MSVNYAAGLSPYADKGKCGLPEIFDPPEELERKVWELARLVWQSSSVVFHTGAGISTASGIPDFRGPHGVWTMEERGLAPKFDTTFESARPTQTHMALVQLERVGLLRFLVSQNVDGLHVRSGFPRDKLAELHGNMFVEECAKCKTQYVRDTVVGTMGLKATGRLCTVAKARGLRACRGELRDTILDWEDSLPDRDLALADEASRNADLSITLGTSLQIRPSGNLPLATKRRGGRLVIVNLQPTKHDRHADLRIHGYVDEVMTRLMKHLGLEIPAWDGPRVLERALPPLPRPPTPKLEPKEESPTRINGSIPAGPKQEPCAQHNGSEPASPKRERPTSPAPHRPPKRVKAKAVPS

Compound | IC50 [1] | IC50 [2] | IC50 SIRT1 [3] [µM] | IC50 [4] [µM] | IC50 [5] [µM] | IC50 (SIRT5) [µM] | IC50 (SIRT1) [µM] | IC50 (SIRT2) [µM] | IC50 (SIRT3) [µM]
CC(=O)N[C@H]1CCCCNC(=O)CNC(=O)CCCCCCC(=O)NCC(=O)NCCCC[C@@H](C(=O)N[C@H](C(N)=O)[C@@H](C)O)NC(=O)[C@H](CCCCNC(=S)NCCC(=O)O)NC(=O)[C@H](CCCNC(=N)N)NC1=O [Compound 4] (Ac-KR[X1]KT-NH2; linker 1-4 via Suberoyl(Gly)2) | ~6 µM and 6 µM | ~9.2 µM and 9.2 µM | – | – | – | – | – | – | –
CC(=O)N[C@@H](C)C(=O)N[C@@H](CCCNC(=N)N)C(=O)N[C@@H](CCCCNC(=S)NCCC(=O)O)C(=O)N[C@@H](CO)C(=O)N[C@H](C(N)=O)[C@@H](C)O [Compound 6] (Ac-AR[X1]ST-NH2) | 7.6 ± 1.5 µM | 96.4 ± 18.5 µM | >1000 | > 1000 | > 1000 | – | – | – | –
CC(=O)N[C@H]1CCCCNC(=O)CCCCCCC(=O)NCCCC[C@@H](C(=O)N[C@H](C(N)=O)[C@@H](C)O)NC(=O)[C@H](CCCCNC(=S)NCCC(=O)O)NC(=O)[C@H](CCCNC(=N)N)NC1=O [Compound 5] (Ac-KR[X1]KT-NH2; linker 1-4 via Suberoyl) | ~7.5 µM and 7.5 µM | > 1000 µM | >1000 | > 200 | > 200 | – | – | – | –
CH3CONH-AR-(N^ε-thiosuccinyl-lysine)-ST-CONH2 | – | – | – | – | – | ~40 | – | – | –
C=CCN1C(=O)/C(=C/c2ccc(-c3cccc(Cl)c3Cl)o2)C(=O)NC1=S [Compound 3] | – | – | – | – | – | 2.3 | 5.3 | 9.7 | > 50

— article PMC6272981, “A Selective Cyclic Peptidic Human SIRT5 Inhibitor” (Molecules, 2016)
